# Legend:
# Type in all cases: cell-based
# Proteus mirabilis = assay: modular antibiotic resistance detection kit on urine sample pellets
# Procedure: (§1) A modular antibiotic resistance detection kit offers more flexibility in testing different resistance profiles. In the modular detection kit exemplified here, the ART strip is replaced by filter paper segments glued to a slide, each segment impregnated with a single antibiotic.
# (§2) Specifically, pathogen samples were tested using filter papers impregnated with the following beta-lactam antibiotics: ampicillin [Amp], augmentin (a combination of amoxicillin and clavulanic acid) [AMC], clavulanic acid (Reduced Resistance test) [RR], ceftazidime [Caz] and either imipenem or meropenem [CPM]. The impregnation details of the fragments were as in the previous Examples.
# (§3) Filter paper (Whatman no. 3] strips impregnated with Assay Reagent solution were used as “indicator strips”. An indicator strip was attached to the plain top slide as shown in FIG. 2. Aliquots of the pellets of the urine samples tested were placed on each of the segments. The test was started by placing the activated indicator-strip-slide, on the modular antibiotic slide. The scan results obtained after 5-10 min at 38° C. are illustrated schematically in FIG. 2 where all segments, except for the negative (no antibiotic) control, show decolorization indicating resistance to each antibiotic in that array.
# (§4) Samples resistant to ceftazidime but affected by clavulanic acid were assumed to contain extended spectrum beta lactamases (ESBLs). The ‘Confirmed’ detections column summarizes the number of CLP-validated results out of the total findings recorded.
# E. coli [1] = assay: as above
# Procedure: as §1, §2, §3, §4
# K. pneumoniae [2] = assay: as above
# Procedure: as §1, §2, §3, §4
# Citrobacter freundii = assay: as above; settings: profile r23, ESBL Pos; note: key: R = resistant; S = sensitive
# Procedure: as §1, §2, §3, §4
# K. pneumoniae [3] = assay: conventional lab procedures [CLP], resistance of bacterial isolates; settings: profile r19 of Table 2
# Excerpt: (§5) The same specimens were examined using conventional lab procedures [CLP] that determined the identity of the bacterial isolates and their resistance to the above beta-lactams.
# Morg. morganii [4] = assay: as above; settings: 1 sample (r23)
# Excerpt: as §5
# E. coli [5] = assay: ART strip (Antibiotics Resistance Test), iodometric detection of beta-lactam hydrolysis by un-cultured urine sample pellets
# Procedure: (§6) Filter paper (Whatman no. 3) strips impregnated with 50 mM potassium iodide and 10 mM iodine in 0.75% aqueous starch solution were divided into 6 test areas. Appropriate antibiotic substrates were prepared at a final concentration of 20 mg/mL. Each test area was impregnated with 30 μL of the appropriate solution. The strips were then dried in a lyophilizer and stored with a desiccant at 4° C.
# (§7) One mL urine samples were spun 2 minutes at 3000 RPM in room temperature. Supernatants were removed and aliquots of the resulting pellets were streaked on standard slides.
# (§8) The product of the enzymatic degradation of a beta-lactam antibiotic removes the iodine from the ART strip and causes local decolorization in that strip. Typically, a detection kit consists of two slides, as illustrated in FIG. 2. The bottom slide is streaked with the sample to be tested. The top slide (lid) carries the ART strip which is activated when each test area on the strip receives 25 μL of the activator solution consisting of 40 mg gelatin in 100 mL phosphate buffer pH 6.5. The test starts when the top slide carrying the freshly activated ART strip contacts the bottom slide carrying the sample. It may be carried out at ambient temperatures but will be accelerated by warming-up to 41° C. […] Result is confirmed if no decolorization took place in the absence of the bacteria (the background of that test area) or in the absence of the antibiotic (as in Test Area 2 in FIG. 1).
# (§9) One mL urine sample pellets were collected as described in Example 1 and each streaked on a slide. The strip of the invention (termed ART for Antibiotics Resistance Test) was used to test for beta-lactamase and its ability to degrade Ceftazidime [Caz], Ceftriaxone [Cro], Cefuroxime [Cxm] and Ampicillin [Amp]. The strip, containing iodine and starch and divided to areas containing each of the abovementioned antibiotics, and attached to a plain slide, was activated as shown above, and placed on the streaked slide. After 5-15 minutes at 33° C.-38° C. the slide was scanned and recorded.
# K. oxytoca = assay: ART strip test on urine sample pellets
# Procedure: as §6, §7, §8, §9
# Staphylococcus sp. = assay: ART strip test on urine sample pellets
# Procedure: as §6, §7, §8, §9
# Citr. koseri = assay: ART strip test on urine sample pellets; settings: 2 samples (r25)
# Procedure: as §6, §7, §8, §9
# Prot. mirabilis [6] = assay: ART strip test on urine sample pellets
# Procedure: as §6, §7, §8, §9
# K. pneumoniae [7] = assay: ART strip test on urine sample pellets
# Procedure: as §6, §7, §8, §9
# E. faecalis = assay: ART strip test on urine sample pellets; settings: 4 samples (r27)
# Procedure: as §6, §7, §8, §9
# Acinetobacter sp. = assay: ART strip test on urine sample pellets; settings: 1 sample (r29)
# Procedure: as §6, §7, §8, §9
# Str. agalactiae = assay: ART strip test on urine sample pellets; settings: 3 samples (r34)
# Procedure: as §6, §7, §8, §9
# Morg. morganii [8] = assay: ART strip test on urine sample pellets
# Procedure: as §6, §7, §8, §9
# Prot. mirabilis [9] = assay: conventional lab procedures [CLP], resistance of bacterial isolates; settings: 1 sample (r18)
# Excerpt: as §5
# E. coli [10] = assay: as above; settings: profile r9 of Table 2
# Excerpt: as §5
# [11] = system: carbapenem-resistant Enterobacteriaceae; assay: modular kit for detection of CRE in urine sample; settings: CRE-containing urine sample pellets; 12 minutes at 38° C.
# Procedure: The kit constructed as a twin-slide [as illustrated by FIG. 1] carries an “OCTET” strip impregnated [as in Example 1] with an array of eight beta-lactam antibiotics and 1 non-beta-lactam control [S].
# To illustrate the life-saving potential of the proposed technology which eliminates delays in diagnosis of carbapenem-resistant members of the Enterobacteriaceae family (CRE), a CRE sample was analyzed using the invention's modular kit, containing ampicillin, ceftazidime, augmentin, cefotaxime, imipenem, cefuroxime, meropenem and ceftriaxone as beta-lactamase substrates and a non-beta-lactam antibiotic, served as a negative control.
# Filter paper segments were glued to a slide, each segment impregnated with a single antibiotic of the abovementioned antibiotics and streaked with carbapenem-resistant Enterobacteriaceae-containing urine sample pellets, prepared as described in Examples 1 to 3. The slide was contacted with indicator strips attached to a slide.
# [12] = Proteus mirabilis (3 samples), profile r25, ESBL Pos
# [13] = Proteus mirabilis, profile r26, ESBL Pos
# [14] = Proteus mirabilis, profile r27, ESBL Neg
# [15] = E. coli (16 samples), profile r6, ESBL Neg, 5-10 min at 38° C. For CLP result differing from kit (in brackets): key: R = resistant; S = sensitive.
# [16] = K. pneumoniae (5 samples), profile r17, ESBL Pos
# [17] = K. pneumoniae, profile r18, ESBL Pos
# [18] = K. pneumoniae, profile r20, ESBL Pos
# [19] = K. pneumoniae, profile r21, ESBL Neg
# [20] = 28 samples (r6), 5-15 minutes at 33° C.-38° C.
Molecule,resistance found with modular kit (Proteus mirabilis; [12]),resistance found with modular kit (Proteus mirabilis; [13]),resistance found with modular kit (Proteus mirabilis; [14]),resistance found with modular kit (E. coli [1]; [15]),"resistance found with modular kit (E. coli [1]; E. coli, profile r9, ESBL Neg)","resistance found with modular kit (E. coli [1]; E. coli, profile r10, ESBL Neg)","resistance found with modular kit (E. coli [1]; E. coli, profile r11, ESBL Neg)","resistance found with modular kit (E. coli [1]; E. coli, profile r12, ESBL Neg)","resistance found with modular kit (E. coli [1]; E. coli, profile r14, ESBL Pos)","resistance found with modular kit (E. coli [1]; E. coli, profile r15, ESBL Pos)",resistance found with modular kit (K. pneumoniae [2]; [16]),resistance found with modular kit (K. pneumoniae [2]; [17]),"resistance found with modular kit (K. pneumoniae [2]; K. pneumoniae, profile r19)",resistance found with modular kit (K. pneumoniae [2]; [18]),resistance found with modular kit (K. pneumoniae [2]; [19]),resistance found with modular kit (Citrobacter freundii),"resistance profile predicted by ART (E. coli [5]; 3 samples (r8), MDR)",resistance profile predicted by ART (E. coli [5]; 12 samples (r7)),resistance profile predicted by ART (E. coli [5]; [20]),resistance profile predicted by ART (K. oxytoca; 1 sample (r15)),also measured
"CC(C)(O/N=C(\C(=O)N[C@@H]1C(=O)N2C(C(=O)[O-])=C(C[n+]3ccccc3)CS[C@H]12)c1csc(N)n1)C(=O)O [Caz, Ceftazidime]",R,R,S,S,S,S,S,S,R,R,R,R,R,R,S,R,R,S,S,S,"CLP result differing from kit (in brackets) (K. pneumoniae [3]): S; CLP result differing from ART (in brackets) (Morg. morganii [4]): R; resistance profile predicted by ART (K. oxytoca; 3 samples (r14)): S; resistance profile predicted by ART (Staphylococcus sp.; 1 sample (r31)): S; resistance profile predicted by ART (Staphylococcus sp.; 1 sample (r32)): S; resistance profile predicted by ART (Citr. koseri): S; resistance profile predicted by ART (Prot. mirabilis [6]; 1 sample (r18)): S; resistance profile predicted by ART (Prot. mirabilis [6]; 1 sample (r19)): S; resistance profile predicted by ART (Prot. mirabilis [6]; 1 sample (r20)): R; resistance profile predicted by ART (Prot. mirabilis [6]; 6 samples (r17)): S; resistance profile predicted by ART (K. pneumoniae [7]; 1 sample (r12)): S; resistance profile predicted by ART (K. pneumoniae [7]; 8 samples (r11)): S; resistance profile predicted by ART (K. pneumoniae [7]; 11 samples (r10), MDR): R; resistance profile predicted by ART (E. faecalis): S[nd]; resistance profile predicted by ART (Acinetobacter sp.): S; resistance profile predicted by ART (Str. agalactiae): S[nd]; resistance profile predicted by ART (Morg. morganii [8]; 1 sample (r22)): S; resistance profile predicted by ART (Morg. morganii [8]; 1 sample (r23)): S"
"CC1(C)S[C@@H]2[C@H](NC(=O)[C@H](N)c3ccccc3)C(=O)N2[C@H]1C(=O)O [Amp, Ampicillin]",R,R,R,S,R,R,R,R,R,R,R,R,R,R,R,R,R,S,R,R,"resistance found with modular kit (E. coli [1]; E. coli, profile r7): S; resistance found with modular kit (E. coli [1]; E. coli, profile r8): R; resistance found with modular kit (E. coli [1]; E. coli, profile r13): R; CLP result differing from ART (in brackets) (Prot. mirabilis [9]): S; resistance profile predicted by ART (K. oxytoca; 3 samples (r14)): R; resistance profile predicted by ART (Staphylococcus sp.; 1 sample (r31)): R; resistance profile predicted by ART (Staphylococcus sp.; 1 sample (r32)): S; resistance profile predicted by ART (Citr. koseri): R; resistance profile predicted by ART (Prot. mirabilis [6]; 1 sample (r18)): R; resistance profile predicted by ART (Prot. mirabilis [6]; 1 sample (r19)): R; resistance profile predicted by ART (Prot. mirabilis [6]; 1 sample (r20)): R; resistance profile predicted by ART (Prot. mirabilis [6]; 6 samples (r17)): R; resistance profile predicted by ART (K. pneumoniae [7]; 1 sample (r12)): R; resistance profile predicted by ART (K. pneumoniae [7]; 8 samples (r11)): R; resistance profile predicted by ART (K. pneumoniae [7]; 11 samples (r10), MDR): R; resistance profile predicted by ART (E. faecalis): S; resistance profile predicted by ART (Acinetobacter sp.): S; resistance profile predicted by ART (Str. agalactiae): S; resistance profile predicted by ART (Morg. morganii [8]; 1 sample (r22)): R; resistance profile predicted by ART (Morg. morganii [8]; 1 sample (r23)): R"
augmentin [AMC],I,S,R,S,R,I,I,I,R,R,I,R,R,R,S,R,,,,,"resistance found with modular kit (E. coli [1]; E. coli, profile r7): S; resistance found with modular kit (E. coli [1]; E. coli, profile r8): S; resistance found with modular kit (E. coli [1]; E. coli, profile r13): R; CLP result differing from kit (in brackets) (E. coli [10]): S; hydrolysis by the tested specimen (decolorization) [11]: hydrolysis"
